Reference: patent EP0678516B1, “Preparation of 2-bromo-5-(2-bromo-2-nitrovinyl)-furan and its use as microcide” (CENTRO DE BIOACTIVOS QUIMICOS DE LA UNIVERSIDAD CENTRAL DE …, priority 1994, dated 1995)
In brackets after ≈: the same amount, converted by molar mass.

How the values were obtained:
[1] = system: Pseudomonas aeruginosa; assay: Infected burn wound treated with ointments; format: in vivo, guinea-pigs; conditions: concentration of ointment applied on 2 cm^2 infected burns
Method: The "in vivo" effectiveness of four ointments of 2-bromo-5-(2-bromo-2-nitro-vinyl)-furan was evaluated at 1, 0.5, 0.25 and 0.125% in hydrophislous ointment applying it on 2 cm^2 of burns provoked to guinea-pigs and subsequently infected with Pseudomonas aeruginosa by a burn wound in an area of 2 cm^2, using positive and negative control groups.

[2] = system: queratoconjunctivitis; assay: Effectiveness against bacterial eye diseases, all treated eyes; format: in vivo; conditions: 9435 animal eyes, overall
Excerpt: The effectiveness of the active principle against bacterial eye diseases in: 9435 animal eyes affected with queratoconjunctivitis; 8093 of cattle and 1342 of other species (sheep, rabbits, dogs, horses, pigs, cats, guinea-pigs and birds).

[3] = Chronic study, external application for six months; format: in vivo, Sprague Dawley rats; conditions: applied externally for a period of six months
Excerpt: Chronic studies of 2-bromo-5-(2-bromo-nitro-vinyl)-furan were made on Sprague Dawley rats.

[4] = system: septic puerperal metritis; assay: Treatment of septic puerperal metritis; format: in vivo, female oxes; conditions: G-1 1.5% oil solution intrauterine, Tetracycline abdominal aorta route
Method: The treatment consisted in applying 40 ml for three consecutive days at intervals of 24 hours from the diagnosis of the disease process. Treatment was compared with intrasoric tetracyclin.

[5] = Percutaneous LD50; format: in vivo, mice OF1; conditions: interscapular region, 0.2 ml/10 g of body mass
Excerpt: (§1) Moreover, the anatomopathological elements and the clinical events were characterized during the experiments.

[6] = Oral LD50; format: in vivo, mice OF1; conditions: taken orally, tragacant gum as vehicle
Excerpt: as §1

[7] = system: Streptococcus agalactiae and Staphylococcus aureus; assay: Intracisternal treatment of clinical mastitis; format: in vivo, femal oxes
Excerpt: The active principle in a concentration of 0.1 % is applied by intracisternal route daily for three consecutive days in femal oxes clinically affected by mastitis of morbid catarrh purulen course types, in which the isolated micro-organisms were Streptococcus agalactiae and Staphylococcus aureus. As a control medicament the mammary infusion of neomicine was used.

[8] = system: Pseudomonas aeruginosa; assay: Experimental infection, implanted sponge method; format: in vivo, mice
Method: The effectiveness of three oil formulations were also tested, at 0.15, 0.2, 0.25% and a control with placebo in mice experimentally infected using implanted sponge method, inoculated with Pseudomonas aeruginosa and Staphylococcus aureus. Recuperation of the animal was between 3 and 4 days of treatment (Tables No. 3 and 3.1).
Read: n = Accumulated from recuperated animals Tr = Recuperation time in days (weighted average) ((n1±1) + ((n2-n1) ±2)+((n3-n2)±3((n4-n3)±4)/n [formula] I,II, III: treated with 2-bromo-5-(2-bromo-2-nitro-vinyl)-furan.

[9] = system: Pseudomonas aeruginosa; assay: Intramuscular treatment of stud bulls affected with piocianosis; format: in vivo
Method: The active principle was administered in a dose of 5-10 mg/kg of body mass by intramuscular route in bulls affected with piocianosis Pseudomonas aeruginosa. […] In clinical tests no allergic reactions were detected in animals (Table No.5).

[10] = Percutaneous LD50; format: in vivo, Sprague Dawley rats; conditions: interscapular region, 0.2 ml/10 g of body mass
Excerpt: as §1

[11] = system: Mycoplasma bovigenitalium; assay: In vitro MIC; format: cell-based; conditions: Mycoplasmopsis bovigenitalium, single value, MIC50 or MIC90 not stated, read-out: Minimal Inhibitory Concentration (MIC)
Method: (§2) The antimicrobial sensitivity was first evaluated "in vitro" using the serial dilution method for bacteria and fungi. Other growth methods in agar cultures were included for other species. The liquid and solid mediums used were Mueller-Hinton, Tryptona Soya, Sabouraud Dextrosa, Sabouraud Maltose and other mediums in accordance with the cultural demands of the micro-organisms valued.
(§3) The temperature and incubation period was adjusted to conditions and characteristics of the micro-organisms used.
(§4) The Minimal Inhibitory Concentration (MIC) was calculated in terms of MIC50 and MIC90 in µg/ml.

[12] = Ophthalmic irritability studies; format: in vivo
Excerpt: as §1

[13] = system: Pseudomonas aeruginosa; assay: Experimental eye infection, erosion and instillation method; format: in vivo, New Zealand Rabbits; conditions: post inoculation evaluation
Method: The effectiveness of two oil formulations was checked of 0.05% for the experimental treatment of eye infections by Pseudomonas aeruginosa in New Zealand Rabbits through the erosion and instillation method. The effectiveness of treatments was tested clinically and microbiologically, observing significant differences with the control group (not treated) (Table No. 2 and 2.1.).

[14] = Oral LD50; format: in vivo, Sprague Dawley rats; conditions: taken orally, tragacant gum as vehicle
Excerpt: as §1

[15] = system: Bacillus subtilis; assay: In vitro MIC (serial dilution); format: cell-based
Method: as §2, §3, §4

[16] = system: Salmonella typhimurium; assay: In vitro MIC (serial dilution); format: cell-based; conditions: Salmonella enterica
Method: as §2, §3, §4

[17] = 5-10 mg/kg of body mass, intramuscular route
[18] = 25 ill bulls, 5 treatments per animal, 5-10 mg/kg intramuscular
[19] = group I, ointment at 0.05% for 8 days
[20] = group II, ointment at 0.05% for 4 days
[21] = group III, eye drops at 0.05% for 4 days

## O=[N+]([O-])C(Br)=Cc1ccc(Br)o1 [Product G-1, 2-bromo-5-(2-bromo-2-nitro-vinyl)-furan]
[1]
  effective dose 50 (ED50): 0.125%
[2]
  clinical recuperation: 89,6%
[3]
  haematological, haemochemical and histopathological studies: did not lead to any major problems in the different organs and tissues analysed
[4]; 27 females, 19 females
  Recuperated n: 20
[4]
  IIA (Artificial insemination index): 1.091±0.30a
  Recuperated %: 74.1%
  T-R (Average of treatment interval of clinical recuperation): 17.7 days
[4]; listed as new formula
  IIA (Artificial insemination index): 1.09 ± 0.30
[5]; mice OF1 females
  LD50: 9.8%
[5]; mice OF1 males
  LD50: 12.1%
[6]; mice OF1 females
  Lethal Average Dose (LD50): 1731.4 mg/kg of body mass
[6]; mice OF1 male
  Lethal Average Dose (LD50): 1835.8 mg/kg of body mass
[7]; G-I 0.1% intracisternal daily for three days (57 parts), neomicine mammary infusion (12 parts)
  Recuperated n (affected parts): 56
[7]; G-I 0.1% intracisternal daily for three days, neomicine mammary infusion
  Recuperated % (clinical recuperation of the affected parts): 98.25%
[8]; Formula 0.15%, day 3, 10 mice
  Accumulated clinical recuperation: 80.0a %
  Accumulated clinical recuperation, n (recuperated animals): 8
[8]; Formula 0.15%, day 5, 10 mice
  Accumulated clinical recuperation: 100.0a %
  Accumulated clinical recuperation, n (recuperated animals): 10
[8]; Formula 0.15%, day 7, 10 mice
  Accumulated clinical recuperation: 100.0%
  Accumulated clinical recuperation, n (recuperated animals): 10
[8]; Formula 0.2%, day 3, 10 mice
  Accumulated clinical recuperation: 80.0a %
  Accumulated clinical recuperation, n (recuperated animals): 8
[8]; Formula 0.2%, day 5, 10 mice
  Accumulated clinical recuperation: 100.0a %
  Accumulated clinical recuperation, n (recuperated animals): 10
[8]; Formula 0.2%, day 7, 10 mice
  Accumulated clinical recuperation: 100.0%
  Accumulated clinical recuperation, n (recuperated animals): 10
[8]; Formula 0.25%, day 3, 10 mice
  Accumulated clinical recuperation: 50.0a %
  Accumulated clinical recuperation, n (recuperated animals): 5
[8]; Formula 0.25%, day 5, 10 mice
  Accumulated clinical recuperation: 90.0a %
  Accumulated clinical recuperation, n (recuperated animals): 9
[8]; Formula 0.25%, day 7, 10 mice
  Accumulated clinical recuperation: 100.0%
  Accumulated clinical recuperation, n (recuperated animals): 10
[9]; [17]
  allergic reactions to the medicament: without any allergic reactions to the medicament being detected
  seminal parameters established as quality control: no alterations being detected
[9]; [18]
  Recuperated (animals): 21
  percentage of effectiveness: 84%
[9]; at 3,7,14,21 and 28 days
  bacteriological tests carried out in the semen: negative at germ
[9]; frozen semen of treated bulls
  cytotoxicity and morphological characteristic of spermatozoid: absence of cytotoxicity and variations in morphological characteristic of spermatozoid
[10]; female Sprague Dawley rats
  LD50: 14.7%
[10]; male Sprague Dawley rats
  LD50: 15.8%
[11]
  MIC: 50 µg/mL (≈ 168 µM)
[12]
  concentrations at which no irritating effects were made on the eye structure: lower than 1.25%
[13]; [19]
  Bacteriolo-gical Exam: 6 (+)
  Edam: 6/6
  Hyperemia: 6/6
  Secretions: 6/6
  Ulcer: 6/6
[13]; [20]
  Bacteriolo-gical Exam: 6 (+)
  Edam: 6/6
  Hyperemia: 6/6
  Secretions: 6/6
  Ulcer: 6/6
[13]; [21]
  Bacteriolo-gical Exam: 6 (+)
  Edam: 6/6
  Hyperemia: 6/6
  Secretions: 6/6
  Ulcer: 6/6
[14]; female Sprague Dawley rats
  Lethal Average Dose (LD50): 1515.5 mg/kg of body mass
[14]; male Sprague Dawley rats
  Lethal Average Dose (LD50): 1857 mg/kg of body mass
[15]
  MIC50: 2.27 µg/mL (≈ 7.65 µM)
  MIC90: 5.08 µg/mL (≈ 17.1 µM)
[16]; TYPHIMURIUM, read-out: MIC90 values
  MIC90: 17.7 µg/mL (≈ 59.5 µM)
[16]; Salmonella typhimurium
  MIC50: 7.43 µg/mL (≈ 25 µM)
